We go through four compounds from patent US20250367419A1, “DRUG DELIVERY SYSTEM COMPRISING AN AGENT EFFECTIVE IN THE TREATMENT OR PREVENTION OF AN ESOPHAGEAL DISEASE FOR THE APPLICATION TO ESOPHAGEAL MUCOUS MEMBRANES” (EsoCap AG, priority 2022, published 2025).

Entries after “also recorded” stand apart in the source; their conditions may differ. r = 2'-OH (RNA)

Type in all cases: physicochemical
A short description of data set [1]: Stability of RNA on the polymer film, 20% denaturing polyacrylamide gel. The method, then: • 1. preparation “base polymer mixture” • 2. sterilization • 3. preparation of film laminates • 4. drying • 5. cutting (A=0.25 cm^2) • 6. application of RNA samples on the polymer film • 7. drying of the final samples • !points 3-7 under aseptic conditions!
Stability of RNA on the film was analyzed using a 20% denaturizing polyacrylamide (PAA) gel. The experiment was repeated with a commercially available siRNA.
Stability of RNA on the film was further analyzed before and after solubilization of the film.

A short description of data set [2]: Stability of antisense BMP2 RNA on the film under various application and storage conditions, 20% denaturing polyacrylamide gel. Particulars: for RNA degradation after storage of the dry film: 10 days of storage of the dry film at 4° C. The protocol: A film containing the antisense RNA for BMP2 was prepared as described in Example 2 except for using PVA 4-88 instead of PVA 18-88.
The stability of the antisense BMP2 RNA was analyzed under various application conditions as indicated in FIG. 16 and the legend of FIG. 16. 10 pmol of each probe was loaded on a 20% denaturing polyacrylamide gel. The gel was run for 3 hours at 140 volt and subsequently colored with SYBR gold for 20 minutes.
The stability of labeled antisense BMP2 RNA was analyzed in comparison to unlabeled antisense BMP2 RNA under various application conditions as indicated in FIG. 17 and the legend of FIG. 17. In lanes 1 to […], 5 pmol of the probe, in lanes 4 to 6, 10 pmol of each probe were loaded on a 20% denaturing polyacrylamide gel. The gel was run for 3 hours at 140 volt and subsequently colored with ethidium bromide for 30 minutes (FIG. 17a) or excited with light of a wavelength of 630 nm and emission was measured at 675 nm (FIG. 17b). The bands of labeled BMP2 RNA in FIG. 17b correspond to the band of the unlabeled BMP2 RNA in FIG. 17a Since the unlabeled BMP2 RNA has no fluorescent marker, the bands of unlabeled BMP2 RNA are not visible in FIG. 17b.
The stability of labeled antisense BMP2 RNA was analyzed in comparison to unlabeled antisense BMP2 RNA after storage of the dry film for 10 days at 4° C. Probes were loaded on a 20% denaturing polyacrylamide gel. The gel was run for 3 hours at 140 volt and subsequently colored with ethidium bromide for 30 minutes (FIG. 18b) or excited with light of a wavelength of 630 nm and emission was measured at 675 nm (FIG. 18a). The bands of labeled BMP2 RNA in FIG. 18a correspond to the band of the unlabeled BMP2 RNA in FIG. 18b.

Data set [3] in a line: HPLC analysis of paclitaxel content of the coated polymer film. Particulars: API-loaded film sample compared with calibration sample. The protocol: • 1. Preparation polymer mixture • 2. Preparation of film laminates • 3. Slitting of the moist laminates • 4. Coating of the moist laminates • 5. Drying at room temperature
Further, the film was analyzed for the content of paclitaxel. To this end, 5 circular samples with a size of 1 cm^2 were cut at random positions of the film and dissolved in Brij® L23-buffer/methanol (MeOH) for HPLC analysis with Hypersil ODS 150×4.6 mm as stationary phase and acetonitrile/phosphate buffer as mobile phase. The HPLC results are shown in FIG. 11 in comparison to a blank film sample and a calibration sample.

For “5′ UGCGCAGAAUGAGAUGAGUUG 3′ (UGCGCAGAAUGAGAUGAGUUG; listed as RNA, chemistry not given here)”, the “influence of the film on RNA stability” value in data set [1] (RNA applied on PVA 18-88 film, 20% denaturing PAA gel) is recorded as “no influence on the stability”. For the same compound, in data set [1] (dried samples on the film, 4 days at 4° C.), the “storage stability of RNA on the dry film” value is given as “no influence on RNA stability”.

Take “5′-AUU UCG AGU UGG CUG UUG C-3′ (antisense AUUUCGAGUUGGCUGUUGC; RNA, 3' rUrU, backbone not given here) [BMP2 RNA, antisense strand of BMP2-siRNA 2]”: in data set [2], the “RNA degradation after storage of the dry film” value is given as “no RNA degradation could be observed”. Also, the “stability of RNA after application to the film” value in data set [2] (PVA 4-88 film, various application conditions, compared with stock sample) is “no difference between the test sample and the stock sample; also recorded: not degraded by the film”. Regarding `CC(=O)O[C@H]1C(=O)[C@@]2(C)[C@H]([C@H](OC(=O)c3ccccc3)[C@]3(O)C[C@H](OC(=O)[C@H](O)[C@@H](NC(=O)c4ccccc4)c4ccccc4)C(C)=C1C3(C)C)[C@]1(OC(C)=O)CO[C@@H]1C[C@@H]2O` [paclitaxel, (2α,4α,5β,7β,10β,13α)-4,10-Bis(acetyloxy)-13-{[(2R,3S)-3-(benzoylamino)-2-hydroxy-3-phenylpropanoyl]oxy}-1,7-dihydroxy-9-oxo-5,20-epoxytax-11-en-2-yl-benzoat], in data set [3], the “stability of paclitaxel prepared in a film” value is reported as “can be stably prepared in a film”. On to “labeled BMP2 RNA: SEQ ID NO:23 antisense BMP2 RNA labeled with the dye Atto633 attached to the 3′ end (antisense AUUUCGAGUUGGCUGUUGC; listed as RNA, chemistry not fully specified)”, for which, in data set [2], the “RNA degradation after storage of the dry film” value was “no RNA degradation could be observed”.
